Assay results as given in patent US20250017949A1, “METHODS AND COMPOSITIONS FOR SUPPRESSING AGING-ASSOCIATED CLONAL HEMATOPOIESIS” (The Jackson Laboratory, priority 2021, published 2025).
Entries after “also recorded” stand apart in the source; their conditions may differ.

Tests used:
[1] = tested on: STAT5; test: Phosphorylation in HSPCs in response to recombinant OSM stimulation; format: cell-based, mouse; conditions: recombinant OSM stimulation for 30 minutes; FIG. 10G
Excerpt: (§1) FIGS. 10A-10G: OSM signaling is increased in Dnmt3a-mutant hematopoietic stem cells (HSCs) in an aged bone marrow microenvironment. (FIG. 10A) Experiment design. (FIG. 10B) Volcano plot of differentially expressed genes between Dnmt3a-mutant (R878H) vs. wild-type (+/+) HSCs in young recipients (left panel) and aged recipients (right panel). […] (FIG. 10C) Ingenuity Pathway Analysis prediction of upstream factors that would produce the differential gene expression pattern observed in aged recipients shown in FIG. 10B. (FIG. 10D) Gene set enrichment analysis of OSM signaling signature in Dnmt3a-mutant (R878H) vs. wild-type (+/+) HSCs specifically in aged recipient mice. (FIG. 10E) OSM levels in bone marrow fluid of young, middle-aged and old C57BL/6 wild-type mice assessed by ELISA. (FIG. 10F) Schematic of OSM-OSMR signaling pathway with differentially expressed genes in Dnmt3a-mutant vs. control HSCs colored in green (increased) or orange (decreased). (FIG. 10G) Phosphorylation of Stat3 (left panel) and Stat5 (right panel) in wild-type or Dnmt3a-mutant HSPCs in response to recombinant OSM stimulation for 30 minutes.
(§2) To determine which factor(s) might be elevated in the aged bone marrow microenvironment that would impact Dnmt3a-mutant HSPCs, donor-derived hematopoietic stem cells (HSCs) were re-isolated from the experiment shown in FIG. 9A (design shown in FIG. 10A). […]

[2] = tested on: STAT3; test: as above; format: cell-based, mouse; conditions: recombinant OSM stimulation for 30 minutes; FIG. 10G
Excerpt: as §1, §2

[3] = tested on: Dnmt3a-mutant HSCs vs wild-type HSCs; test: Mixed HSC culture with or without recombinant OSM, then transplant and engraftment; format: in vivo, mouse; conditions: then transplant, FIGS. 11B-11C
Excerpt: (FIG. 11A) Experiment design. Contribution of wild-type (WT F1) and competitor Dnmt3a-mutant (R878H/+) cells to peripheral blood (FIG. 11B) and bone marrow (FIG. 11C) of recipient mice after culture with or without recombinant OSM.
Next, to determine if OSM stimulation has a differential functional effect on Dnmt3a-mutant vs. control HSCs, we established mixed cultures of purified control and Dnmt3a-mutant HSCs in culture conditions that promote HSC self-renewal and expansion. To test HSC function, we transplanted cells at the end of the culture period into recipient mice and measured their engraftment capacity (FIG. 11A). We find that in absence of OSM there is similar or equal engraftment of wild-type and Dnmt3a-mutant competitor cells in recipient mice (FIGS. 11B-11C). […] This finding supports that OSM is a major factor causing clonal hematopoiesis.

[4] = tested on: Dnmt3a^R878H/+ cells; test: Etanercept transplants (pan-TNFα blockade after competitive secondary transplant); format: in vivo, mouse
Excerpt: FIGS. 7A-7H: TNFR1 is required for Dnmt3a^R878H/+ HSC self-renewal while TNFR2 regulates lymphoid cell production. (FIG. 7A) Schematic of experimental design to test competitive, serial transplant of Mx-Cre control, Dnmt3a^R878H/+(R878H/+), Dnmt3a^R878H/+ Tnfrsf1a^−/− (R878H/+; TNFR1KO) and Dnmt3a^R878H/+ Tnfrsf1b^−/− (R878H/+; TNFR2KO) in aged (>12 mo) recipient mice. (FIG. 7B) Frequency of donor cells in PB (left) and BM (right) of recipient mice at 20 weeks post-secondary transplant. Significance was calculated using Brown-Forsythe and Welch ANOVA with Welch's correction. (FIG. 7C) Representative flow cytometry plots showing B cell and myeloid cell frequencies in donor derived PB. (FIG. 7D) Frequency of B cells (left), T cells (center) and myeloid cells (right) in donor derived PB at 20 weeks post-secondary transplant. Significance was calculated using one-way ANOVA with Tukey's multiple comparisons test. (FIG. 7E) Experimental schematic of transplant experiment with etanercept treatment. (FIG. 7F) Frequency of control or R878H/+ donor cells in PB pre- and post-etanercept treatment. Significance was calculated using two-way ANOVA with Fisher's LSD. (FIG. 7G) Frequency of control or R878H/+ donor cells in BM post-etanercept or vehicle treatment. Significance was calculated using two-way ANOVA with Fisher's LSD. (FIG. 7H) Frequency of HSC, MPP^Mk/E, MPP^G/M, and MPP^Ly populations in control or R878H/+ BM. Significance was calculated using two-way ANOVA with Fisher's LSD. (FIGS. 7B and 7D) Dots represent individual recipient mice, boxes show 25 to 75th percentile, line is median, whiskers show min to max. (FIG. 7F) Dots represent mean across biological replicates (n=4). (FIGS. 7G and 7H) Bars represent mean+/− SEM (n=4). *P<0.05, **P<0.01, ***P<0.001, ****P<0.0001.
TNFα signaling occurs through two distinct TNFα receptors, TNFR1 (Tnfrsf1a) and TNFR2 (Tnfrsf1b). Both TNFR1 and TNFR2 are expressed on HSC and MPP populations and are not altered in surface expression between control and Dnmt3a^R878H/+ mice (data not shown). To determine which of these receptors are responsible for TNFα-mediated selective advantage of Dnmt3a^R878H/+ HSCs and B lymphoid cell production, we crossed Dnmt3a^R878H/+ mice with Tnfrsf1a or Tnfrsf1b knockout mice (data not shown) and tested HSC function by competitive serial BM transplantation into aged recipients (FIG. 7A). […]
1×10^6 BM cells from 2-4-month-old Dnmt3a^+/+ Mx-Cre or Dnmt3a^fl-R878H/+ Mx-Cre donors were competitively transplanted with wild-type CD45.1+ CD45.2+ F1 BM cells in 2-4-month-old CD45.1+ lethally irradiated recipients. […] PB was monitored weekly and at 28 weeks post-transplant, bone marrow was harvested for analysis.

[5] = tested on: Dnmt3a-mutant (D3a) hematopoietic stem cells; test: In vivo MitoQ treatment after transplant into aged recipient mice; design: species or system mouse; conditions: in vivo MitoQ vs vehicle (PBS) after transplant into aged recipient mice, FIG. 4
Experimental: Frequency of donor-derived cells produced from wild-type (MxCre) control or Dnmt3a-mutant (D3a) hematopoietic stem cells post-transplantation and in vivo treatment with MitoQ or vehicle (PBS).
(§3) To evaluate the extent to which targeting defects in mitochondrial metabolism might improve wild-type HSC function and thus reduce the selective advantage of Dnmt3a-mutant HSCs, cells were treated with the mitochondrially targeted antioxidant mitoquinol (MitoQ) in vitro and in vivo. […] Treatment with MitoQ or other methods to improve mitochondrial metabolism are attractive targets to consider in the treatment of clonal hematopoiesis and prevention of leukemia.

[6] = tested on: Dnmt3a-mutant (D3a) hematopoietic stem and progenitor cells; test: Myeloid colony formation in media containing MitoQ or vehicle (DMSO); format: cell-based, mouse; conditions: in vitro, MitoQ vs vehicle (DMSO), FIG. 3
Experimental: (§4) Number of myeloid colonies produced from wild-type MxCre control or Dnmt3a-mutant (D3a) hematopoietic stem and progenitor cells in media containing MitoQ or vehicle (DMSO).
as §3

[7] = tested on: wild-type MxCre control hematopoietic stem and progenitor cells; test: as above; format: cell-based, mouse; conditions: in vitro, MitoQ vs vehicle (DMSO); FIG. 3
Experimental: as §4, §3

[8] = etanercept 25 mg/kg IP twice per week for four weeks vs vehicle, FIG. 7H

## OSM: recombinant pro-inflammatory cytokine Oncostatin M used to stimulate HSCs/HSPCs
[1]
  Phosphorylation of STAT5 in HSPCs: phosphorylation of STAT5 was not seen
[2]
  Phosphorylation of STAT3 in Dnmt3a-mutant vs control HSPCs: greater phosphorylation of STAT3; also recorded: greater downstream Stat3 phosphorylation compared to control HSCs
[3]
  Engraftment of Dnmt3a-mutant vs wild-type cells in peripheral blood and bone marrow of recipient mice: favors growth of Dnmt3a-mutant hematopoietic stem cells (HSCs); also recorded: greater multi-lineage engraftment capacity in recipient mice compared to OSM-treated wild-type HSCs
[3]; listed as recombinant OSM
  Engraftment of Dnmt3a-mutant vs wild-type cells in peripheral blood and bone marrow of recipient mice: entirely favors growth of Dnmt3a-mutant HSCs over wild-type cells

## Etanercept
[4]; etanercept 25 mg/kg IP twice per week for four weeks vs vehicle, FIG. 7G
  Frequency of R878H/+ donor cells in BM (BM engraftment): trended toward reduction in BM engraftment
[4]; [8]
  Frequency of Dnmt3a^R878H/+ HSC, MPP^Mk/E and MPP^Ly populations in BM: reduced the frequency
  Frequency of Dnmt3a^R878H/+ myeloid-primed multipotent progenitors MPP^G/M in BM: trend toward increase
[4]; etanercept 25 mg/kg IP twice per week for four weeks, pre- vs post-treatment, FIG. 7F
  Frequency of R878H/+ donor cells in PB (competitive PB advantage): reduced the competitive PB advantage

## mitoquinol
[5]
  Contribution of Dnmt3a-mutant cells to hematopoiesis (frequency of donor-derived cells): reduced contribution of Dnmt3a-mutant cells to hematopoiesis; also recorded: decreases contribution of Dnmt3a-mutant cells to mature hematopoiesis in vivo
[5]; listed as MitoQ®
  Contribution of Dnmt3a-mutant cells to hematopoiesis (frequency of donor-derived cells): impaired differentiation and mature cell production from Dnmt3a-mutant HSCs
[6]
  Number of myeloid colonies / progeny produced from Dnmt3a-mutant cells: reduce number of progeny produced from Dnmt3a-mutant cells; also recorded: decreases myeloid differentiation of hematopoietic stem and progenitor cells in vitro
[6]; listed as MitoQ®
  Number of myeloid colonies / progeny produced from Dnmt3a-mutant cells: reduced myeloid differentiation of Dnmt3a-mutant HSCs
[7]
  Myeloid differentiation of wild-type control cells: did not impact differentiation of wild-type control cells
